Assays:
IDH1 G97D = target: T1, IDH1 G97D (Homo sapiens, UniProt O75874, G97D); experiment: IDH1 G97D inhibition assay (NADPH/aKG, diaphorase/resazurin fluorescence readout); assay type: biochemical; conditions: 50 minutes at room temperature
T1 construct: Oligo nucleotides were designed to PCR out the coding region of IDH1 with NdeI at the 5′ end and XhoI at the 3′; Ser-Leu-Glu junction (stop codon changed to Ser, then Leu-Glu); made in house; host or cells: E. coli Rosetta
Method: Assays were conducted in a standard 384-well plate in a reaction volume of 76 uL assay buffer (150 mM NaCl, 10 mM MgCl2, 20 mM Tris pH 7.5, 0.05% bovine serum albumin, 2 mM beta-mercaptoethanol) as follows: To 25 uL of substrate mix (4 uM NADPH, 1 mM aKG), 1 uL of test compound in DMSO was added. The plate was centrifuged briefly, and then 25 ul of enzyme mix was added (0.1 ug/mL ICDH1 G97D) followed by a brief centrifugation and shake at 100 RPM. The reaction was incubated for 50 minutes at room temperature, then 25 ul of detection mix (30 uM resazurin, 36 ug/ml diaphorase) was added, and the mixture further incubated for 5 minutes at room temperature. The activity readout as a result of the conversion of resazurin to resorufin was detected by fluorescent spectroscopy at excitation 544 nm and emission 590 nm (c/o 590 nm).

glioblastoma multiforme = conditions: persons newly diagnosed with glioblastoma multiforme; cited from earlier work

T1 sequence (O75874 whole entry G97D): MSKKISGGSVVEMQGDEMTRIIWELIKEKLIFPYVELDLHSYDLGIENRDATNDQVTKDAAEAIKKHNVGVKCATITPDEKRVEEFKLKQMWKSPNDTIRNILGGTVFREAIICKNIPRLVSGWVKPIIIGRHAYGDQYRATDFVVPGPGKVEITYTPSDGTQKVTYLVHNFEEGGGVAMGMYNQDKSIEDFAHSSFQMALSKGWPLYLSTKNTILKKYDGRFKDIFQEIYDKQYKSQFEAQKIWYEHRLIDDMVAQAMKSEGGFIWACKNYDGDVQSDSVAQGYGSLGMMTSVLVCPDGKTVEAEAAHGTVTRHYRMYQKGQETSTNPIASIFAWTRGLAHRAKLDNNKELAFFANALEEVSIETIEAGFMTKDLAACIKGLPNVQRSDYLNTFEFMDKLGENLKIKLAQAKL

| Structure (SMILES) | IC50 (IDH1 G97D) | tolerability (glioblastoma multiforme) |
| --- | --- | --- |
| Cn1nnc2c(C(N)=O)ncn2c1=O [temozolomide, Temozolomide] |  | well tolerated |
| N#C/C(=C\c1ccc(-c2cc([N+](=O)[O-])ccc2O)o1)c1nc2ccccc2[nH]1 | 1 to 5 µM |  |
| O=C1NC(=S)S/C1=C\c1ccc(-c2ccc(N3CCOCC3)c([N+](=O)[O-])c2)o1 | 5 to 10 µM |  |

More lines, main results first:

| IC50 (IDH1 G97D) | Structure (SMILES) | tolerability (glioblastoma multiforme) |
| --- | --- | --- |
| 1 to 5 µM | CCCCC1=NN2C(=N)/C(=C/c3ccc(-c4ccc([NH2+][O-])cc4Cl)o3)C(=O)N=C2S1 |  |
| 1 to 5 µM | O=C1/C(=C/c2ccc(F)cc2)C(CSc2ccc(Cl)cc2)=NN1c1nc2ccccc2s1 |  |

— patent US8883438B2, “Method for diagnosing cell proliferation disorders having a neoactive mutation at residue 97 of isocitrate dehydrogenase 1” (Agios Pharmaceuticals, Inc., priority 2009, dated 2014)
